Assay results reported in patent EP2796135A1, “Use of trifluoroacetic acid and salts thereof to treat hypercholesterolemia” (POLICHEM S.A., priority 2013, dated 2014).
Where a name gives a salt, the structure may show the parent alone.

Tests used:
[1] = preliminary oral study with ascending dose levels in minipigs (Example 13); type: in vivo, Göttingen minipig; conditions: in vivo, minipig, read-out: maximum tolerated dose
Description: (§1) A preliminary oral study of the Calcium salt of trifluoroacetic acid was performed in minipigs. One male and one female Göttingen minipig were daily treated by oral route with ascending dose levels of Calcium salt of trifluoroacetic acid, as indicated below.
(§2) The oral solutions were prepared as for Example 1.

total cholesterol [2] = experiment: as above; type: in vivo, Göttingen minipig; conditions: for decrease of total cholesterol: male
Description: as §1, §2

total cholesterol [3] = experiment: preliminary intravenous study in dogs, daily administration for 14 days (Example 14); type: in vivo, Beagle dogs; conditions: for reduction in total cholesterol: end of the 14 days of treatment
Description: A preliminary intravenous study of the Calcium salt of trifluoroacetic acid was performed in Beagle dogs after daily administration.
Dogs (2 animals/sex/group) were treated by intravenous slow injection (2.5 mL/min) with 100 and 200 mg/kg for 14 consecutive days.
(§3) The intravenous solutions were prepared as for Example 9.

total cholesterol [4] = experiment: intravenous study in dogs, daily administration for 4 weeks (Example 15); type: in vivo, Beagle dogs; conditions: for reduction in total cholesterol: intravenous, end of the 4 weeks of treatment
Description: An intravenous study of the Calcium salt of trifluoroacetic acid was performed in Beagle dogs after daily administration for 4 weeks.
Dogs (4 animals/sex/group) were treated by intravenous slow injection (2.5 mL/min) with 50, 100 and 200 mg/kg for 4 consecutive weeks.
as §3

[5] = ascending doses 50-1000 mg/kg/day
[6] = intravenous, 100 and 200 mg/kg, 14 consecutive days

O=C(O)C(F)(F)F [Calcium salt of trifluoroacetic acid, Calcium trifluoroacetate]
MTD [1]: ≥ 1000 mg/kg | changes in body weight, food consumption and water consumption (total cholesterol [2]; [5]): No changes of toxicological relevance | changes in hematology (total cholesterol [2]; [5]): No changes of note | mortality (total cholesterol [2]; ascending doses 50-1000 mg/kg/day, one male and one female minipig): No mortality occurred | decrease of total cholesterol (total cholesterol [2]; 150 mg/kg/day): 18% | decrease of total cholesterol (total cholesterol [2]; 200 mg/kg/day): 33% | decrease of total cholesterol (total cholesterol [2]; 300 mg/kg/day): 44% | decrease of total cholesterol (total cholesterol [2]; 600 mg/kg/day): 49% | decrease of total cholesterol (total cholesterol [2]; 1000 mg/kg/day): 56% | reduction in total cholesterol (total cholesterol [3]; females, intravenous, 100 mg/kg/day): 29% | reduction in total cholesterol (total cholesterol [3]; females, intravenous, 200 mg/kg/day): 16% | deaths (total cholesterol [3]; intravenous slow injection, 100 and 200 mg/kg, 14 consecutive days): No deaths occurred | differences in body weight, food consumption, physical examination and chemical chemistry, coagulation, organ weight (total cholesterol [3]; [6]): No significant differences | findings recorded in the study (total cholesterol [3]; [6]): limited to the site of injection | reduction in total cholesterol (total cholesterol [3]; males, intravenous, 100 mg/kg/day): 18% | reduction in total cholesterol (total cholesterol [3]; males, intravenous, 200 mg/kg/day): 21% | changes in body weight, food consumption and water consumption, hematological, chemical chemistry, fecal and urinalysis parameters (total cholesterol [4]; both sexes, intravenous, 50, 100 and 200 mg/kg, 4 weeks): No changes of toxicological relevance | reduction in total cholesterol (total cholesterol [4]; females, 50 mg/kg/day): 20% | reduction in total cholesterol (total cholesterol [4]; females, 100 mg/kg/day): 29% | reduction in total cholesterol (total cholesterol [4]; females, 200 mg/kg/day): 24% | deaths (total cholesterol [4]; intravenous slow injection, 50, 100 and 200 mg/kg, 4 consecutive weeks): No deaths occurred | organ weights (total cholesterol [4]; intravenous, 50, 100 and 200 mg/kg, 4 weeks): unaffected | findings at the site of injection and electrographic alterations (total cholesterol [4]; intravenous, 50, 100 and 200 mg/kg, 4 weeks, findings at the site of injection minimal to moderate): dose dependent and reversible | reduction in total cholesterol (total cholesterol [4]; males, 50 mg/kg/day): 9% | reduction in total cholesterol (total cholesterol [4]; males, 100 mg/kg/day): 21% | reduction in total cholesterol (total cholesterol [4]; males, 200 mg/kg/day): 15%
